Molecules are shown by their SMILES. Read-outs that look alike come from different tables or passages of the source.

Data set [1] is described as follows: In vivo antitumor assay, Panc03(sc). As to conditions: mouse, in vivo. Also on record: species or system mouse. The text has this: (§1) Mice: Inbred: C3H/He and NCR-nu; and Hybrids: B6D2Fl (C57BL/6 females X DBA/2 males, CD2Fl (Balb/c females X DBS/2 males) and B6x C3fl (C57BL/6 x C3H) were bred at Wayne State University from strained obtained from the Frederick Cancer Research Facility, Frederick, Md. or purchased from commercial suppliers.
(§2) Tumors: Murine Tumor: P388 and an adriamycin-resistant (ADR) subline P388/ADR leukemia and the following transplantable solid tumors of mice were used for in Vivo testing: B16 melanoma (B16), pancreatic ductal adenocarcinoma No. 03 (Panc 03), colon adenocarcinoma No. 38 (colo 38), mammary ductal adenocarcinoma No. 16/C (Mam16) and an adriamycin-resistantsubline Mam16C/ADR. Human tumor: A single human tumor, mammary carcinoma MX-1 (MX1) was used for in vivo testing. All tumors are in the Developmental Therapeutics Program frozen tumor respository, maintained by the Biological Testing Branch, Frederick Md. Each has a detailed description, code identification number, and list of references at the National Tumor Repository. Murine tumors were maintained in the mouse strain of origin and were transplanted in the appropriate F1 hydrid (or the strain of origin) for therapy trials. Human mammary carcinoma MX-1 MX1) was maintained as a subcutaneous implant in either athymic Swiss (Cr: NIH(S)-nu) or athymic random bred (NCR-nu) mice and transplanted in NCR-nu for therapy trials.
(§3) Chemotherapy: For pancreatic ductal adenocarcinoma No. 3, colon adenocarcinoma No. 38 (colo38), lung carcinoma No. 12 (LC12) and both adriamycin-sensitive (RP) and -resistant ADR) mammary ductal adenocarcinoma No. 16 (Mam16) tumors, the following methods were used to help ensure a more uniform tumor burden per mouse (thus reducing the requirement for greater numbers of mice per group), bilateral tumor implants were used. The animals necessary to begin an experiment were pooled, implanted bilaterally s.c. on day zero with 30-60-mg tumor fragments using a 12-gauge trocar, and again pooled before randomization to the various treatment and control groups. Chemotherapy was started within three days after tumor implantation while the number of cells per mouse was relatively small (1×10^7 […]).
(§4) Quantitative end points used assess antitumor activity included % Increased Life Span (% ILS), Tumor Cell Kill (Log10 kill), and Tumor Growth Inhibition (T/C). Long Term Survivors (45 or 60 day) were excluded from calculations of % ILS and Tumor Cell Kill.
(§5) The log10 cell kill was calculated from the following formula: [formula] where T-C is the tumor difference in the median day of death between the treated (T) and the control (C) groups and Td is the tumor doubling time (in days), the latter estimated from the best fit straight line from a log-linear growth plot of the control-group tumors in exponential growth. The conversion of the T-C values to log10 cell kill is possible because the Td for tumors regrowing post-treatment approximated the Td values of the tumors in untreated control mice.
(§6) Tumors were measured with a caliper once or twice weekly (as needed) until either tumors exceeded 1600 mg or cure was assured. Tumor weights were estimated from two-dimensional measurements: Tumor Weight (mg)=(a×b^2) / 2, where a and b are the tumor length and width (nun) respectively. Measurements were carried out simultaneously in both treatment and control groups. When the control group tumors reached approximately 750-1500 mg in size (median of group), the median tumor weight of each group was determined (including zeros). The T/C value in percent is an indiation of antitumor effectiveness. The % T/C was calculated from the following formula for solid murine tumor models: [formula] where T and C are median tumor weights of the treatment and control groups, respectively. A T/C equal to or less than 42% is considered significant antitumor activity. […]

Data set [2] relates to pancreatic ductal adenocarcinoma No. 03 (Panc 03). The data set is described as follows: In vivo antitumor assay, Panc03(sc). On the set-up: species or system mouse.
Source text: as §1, §2, §3, §4, §5, §6

Data set [3] concerns P388 murine leukemia cells. As to the kind of experiment: Malignant cell cytotoxicity, one-hour exposure (clonogenic survival in soft agar). It is filed as cell-based. Conditions: Mus musculus, 1 hr exposure, read-out: IC50 P388 1 hr. exp. Here is the method:
(§7) Examples of compound I having Topo II activity were tested for malignant cell cytotoxicity. In vitro cytotoxicity was assayed by determining cell survival following exposure of P388 murine leukemia cells to a range of test compound concentrations. Cytotoxicity was quantitated following either a one-hour exposure or continuous exposure of P388 cells to test compound.
(§8) Cytotoxicity following a one-hour exposure of cells to drug was assayed by quantitating clonogenic cell survival according to a published procedure [Freshney, R. L. (1987) Culture of Animal Cells. A Manual of Basic Technique. Wiley-Liss Inc., New York, N.Y., pp. 140-144]. Briefly, following drug exposure cells were plated in soft agar and incubated (37°, 5% CO2) for 7-10 days during which time viable cells form visible colonies. Cytotoxicity following continuous exposure of cells to test compound was assayed by quantitating total P388 cells on a Coultier Counter following a 48-hour co-incubation of test compound with cells. P388 cells were maintained in log phase throughout the duration of cytotoxicity assays.
(§9) The percentage of cells surviving relative to an untreated control was graphed as a function of increasing drug concentration.

In a further data set the target is T1, human topoisomerase II (Homo sapiens, UniProt P11388).
T1 construct: Topo II was purified from late log phase suspension cultures of HeLa WIS; endogenous in cells; host or cells: HeLa WIS suspension cultures, late log phase (enzyme purified from the cells)
The data set is described as follows: Mammalian Topoisomerase II Inhibition Assay (DNA-topo II complex formation). In kind it is biochemical. Conditions: EC50 = concentration with activity equal to EC50 of reference mAMSA; read-out: TopoII Inh. EC50. On the procedure:
Mammalian Topoisomerase II Inhibition Assay Procedure
The assay quantitates the amount of topo II covalently complexed by DNA at equilibrium during a topo II reaction. This assay determines the potential of a compound to stabilize this complex, which potential is closely related to the cytotoxicity of the compound.
Assays (in duplicate) were assembled at 4° C.
4 ng 3' end labeled (^32 P) pBR322 DNA (10^7 DMP/μg)
The assay mix including the test compound was incubated for 20 minutes at 37° C. The reaction was terminated at 37° C. by the addition of 3 μl 10% SDS followed by the addition of 266 μl 10 mM Tris-Cl pH 7.5, 20 μg/ml BSA, 20 μg/ml calf thymus DNA, 1% SDS.
A SDS/protein precipitate was formed by the addition of 28 μl 2.5M KCl followed by chilling on ice for a minimum of 10 minutes. The precipitate was collected and washed with a Brandell cell harvester on a GFB glass fiber filter membrane as follows. The contents of the assay tube were drawn up into the harvester. The tube was then rinsed 7X with 10 mM Tris-Cl pH 7.5, 1 mM EDTA and 100 mM KCl. […] After drying, CPM was determined by liquid scintillation counting with 5 ml Biofluor (NEN Research Products) or Readisafe (Beckman Instruments Inc.) cocktail.
This solution then was diluted 1/5 into water and serially thereafter in either 0.02N sodium hydroxide or 0.04N hydrogen chloride, respectively. The stock solution and serial dilution of the test compound was stored at -20° C. prior to testing.
Screening of test compound--As an initial screen, the test compound was tested at a final concentration of 2, 20 and 200 μg/ml. The compound was then retested at a range of concentrations (usually 2-3X steps) bridging their approximate EC50 's, as estimated by the prescreen.
Controls--A solvent control which indicates the base level of topo II-DNA complex formed in the absence of the test compound was included in each test. A control, in which topo II was omitted, was included for each test compound at the highest drug concentration tested.
Reference Agent--A dose response curve with mAMSA at 0.01, 0.08, 0.16, 0.32, 1.0 and 10 μg/ml was included in each test.
The maximal DNA-topo II complex formed is taken as that equal to that formed at the nearly saturating dose of mAMSA (10 μg/ml).

Data set [4] relates to P388 murine leukemia cells. The data set is described as follows: Malignant cell cytotoxicity, continuous 48-hour exposure (Coulter Counter). In kind it is cell-based. Conditions: Mus musculus, read-out: IC50 P388 cont. exp. On the procedure: as §7, §8, §9
The mark [5] stands for this setting: drug route iv, sc, Ex 18 iv qd 3 bid 4-9, sc bid 10-11, Ex 20 iv qd 3,5 bid 4,6-8, sc bid 9-11 qd 12, read-out: MTD.
Setting [6] is: drug route iv, sc, Ex 18 iv qd 3 bid 4-9, sc bid 10-11, Ex 20 iv qd 3,5 bid 4,6-8, sc bid 9-11 qd 12.

T1 sequence (P11388 whole entry): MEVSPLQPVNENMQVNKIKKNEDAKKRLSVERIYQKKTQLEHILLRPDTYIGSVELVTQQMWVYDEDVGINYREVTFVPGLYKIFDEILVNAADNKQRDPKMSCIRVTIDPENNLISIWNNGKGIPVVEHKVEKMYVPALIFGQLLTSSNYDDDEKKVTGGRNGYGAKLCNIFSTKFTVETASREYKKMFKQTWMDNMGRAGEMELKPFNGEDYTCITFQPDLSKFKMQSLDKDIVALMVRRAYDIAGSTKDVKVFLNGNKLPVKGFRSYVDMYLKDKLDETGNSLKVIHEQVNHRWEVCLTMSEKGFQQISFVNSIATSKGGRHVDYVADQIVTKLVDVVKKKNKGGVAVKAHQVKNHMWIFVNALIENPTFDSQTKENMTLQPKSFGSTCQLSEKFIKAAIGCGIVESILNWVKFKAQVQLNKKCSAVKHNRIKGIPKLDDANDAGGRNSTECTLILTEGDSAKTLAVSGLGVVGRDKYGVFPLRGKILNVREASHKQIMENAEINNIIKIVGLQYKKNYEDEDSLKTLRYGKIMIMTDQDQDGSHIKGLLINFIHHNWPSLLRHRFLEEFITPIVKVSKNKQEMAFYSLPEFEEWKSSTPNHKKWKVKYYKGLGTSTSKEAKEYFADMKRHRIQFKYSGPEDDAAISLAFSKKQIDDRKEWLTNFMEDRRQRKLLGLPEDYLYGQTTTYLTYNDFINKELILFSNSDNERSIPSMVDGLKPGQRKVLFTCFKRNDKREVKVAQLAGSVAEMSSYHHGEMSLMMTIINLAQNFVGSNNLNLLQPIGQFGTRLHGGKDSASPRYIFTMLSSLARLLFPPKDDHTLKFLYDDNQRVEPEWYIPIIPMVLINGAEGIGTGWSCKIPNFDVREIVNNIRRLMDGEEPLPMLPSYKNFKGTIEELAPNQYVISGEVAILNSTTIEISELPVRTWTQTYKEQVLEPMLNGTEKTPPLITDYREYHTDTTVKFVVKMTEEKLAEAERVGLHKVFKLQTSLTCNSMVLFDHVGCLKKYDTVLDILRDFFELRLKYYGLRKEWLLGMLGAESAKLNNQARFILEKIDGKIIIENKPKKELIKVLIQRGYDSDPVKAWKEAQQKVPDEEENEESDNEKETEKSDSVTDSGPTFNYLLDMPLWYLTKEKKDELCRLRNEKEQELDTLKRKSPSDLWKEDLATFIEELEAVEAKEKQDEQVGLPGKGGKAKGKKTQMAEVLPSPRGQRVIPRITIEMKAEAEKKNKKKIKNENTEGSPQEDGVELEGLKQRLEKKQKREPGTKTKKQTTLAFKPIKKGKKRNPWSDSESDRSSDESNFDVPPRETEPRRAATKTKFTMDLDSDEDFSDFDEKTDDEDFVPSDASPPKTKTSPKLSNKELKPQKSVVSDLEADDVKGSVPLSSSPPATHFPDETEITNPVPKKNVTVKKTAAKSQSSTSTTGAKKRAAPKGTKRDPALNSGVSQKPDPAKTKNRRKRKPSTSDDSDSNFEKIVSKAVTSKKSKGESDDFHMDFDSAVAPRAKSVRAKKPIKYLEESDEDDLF

In general, IC50 refers to the point on the concentration scale where inhibition reaches its midpoint. The EC50 is the concentration giving half of the maximal effect. For `Cc1cc(-c2c(F)cc3c(=O)c(Cc4ncc[nH]4)cn(C4CC4)c3c2F)cc(C)n1` [Example 18], the MTD in data set [1] (setting [5]) turned out to be 88 mg/kg. For the same compound, the T/C % in data set [2] (setting [6]) is recorded as 21%. Besides, the concentration for half-maximal inhibition (IC50) in data set [3] was 1.1 µM. For the same compound, at human topoisomerase II, the concentration giving a half-maximal response (EC50) was 1.1 µM.

With `Cc1cc(-c2c(F)cc3c(=O)c(Cc4ccccc4)cn(C4CC4)c3c2F)cc(C)n1` [Example 3], the MTD in data set [1] (drug route sc, qd 3-12, footnote 1, read-out: MTD (MTD not achieved, maximum dose tested)) was greater than 3750 mg/kg. In data set [2] (drug route sc, Ex 3 qd 3-12, Ex 26 qd 3,5-7 bid 4), the T/C % was greater than 100%. The half-maximal inhibitory concentration (IC50) in data set [3] worked out at 7.3 µM; in data set [4], 7.1 µM. The EC50 on human topoisomerase II turned out to be 3.9 µM.

Consider `Cc1cc(-c2c(F)cc3c(=O)c(Cc4cccc(F)c4OCc4ccccc4)cn(C4CC4)c3c2F)cc(C)n1` [Example 20], for which, in data set [1] (setting [5]), the MTD was determined as 336 mg/kg. For the same compound, the T/C % in data set [2] (setting [6]) is given as 80%. Also, the half-inhibitory concentration (IC50) in data set [3] turned out to be 0.25 µM. Also, the concentration for a half-maximal effect (EC50) at human topoisomerase II is greater than 90 µM.
